Measured values taken from ChEMBL document CHEMBL1151757, “Synthesis, radiosynthesis, and biological evaluation of fluorine-18-labeled 2beta-carbo(fluoroalkoxy)-3beta-(3'-((Z)-2-haloethenyl)phenyl)nortropanes: candidate radioligands for in vivo imaging of the serotonin transporter with positron emission tomography” (J Med Chem, 2008).

Tested on: not listed separately
Experiment: Ratio of drug uptake in medulla to cerebellum in anesthetized cynomolgus monkey after 0.5 mins postinjection
Format: ADME, organism-based, Macaca fascicularis
Settings: in vivo

Q: For `O=C(OCC[18F])C1C2CCC(CC1c1cccc(/C=C\Br)c1)N2` (centres undefined), which Ratio is on record?
A: The Ratio was 0.6.

Tested on: not listed separately
Experiment: Ratio of drug uptake in midbrain to cerebellum in anesthetized cynomolgus monkey after 145 mins postinjection
Format: ADME, organism-based, Macaca fascicularis
Settings: in vivo

Q: Which Ratio does the source give for `O=C(OCC[18F])C1C2CCC(CC1c1cccc(/C=C\Br)c1)N2` (centres undefined) here?
A: Its Ratio is 2.

Tested on: not listed separately
Experiment: Drug uptake in anesthetized cynomolgus monkey brain cerebellum after 165 mins postinjection
Format: ADME, organism-based, Macaca fascicularis
Settings: in vivo, 2.75 h

Q: With `O=C(OCC[18F])C1C2CCC(CC1c1cccc(/C=C\Br)c1)N2` (centres undefined) as the compound, how does the Drug uptake read?
A: Its Drug uptake is 2.18.

Tested on: Midbrain
Experiment: Drug uptake in anesthetized cynomolgus monkey brain midbrain after 225 mins postinjection
Format: ADME, organism-based, Macaca fascicularis
Settings: in vivo, 3.75 h

Q: For `O=C(OCC[18F])C1C2CCC(CC1c1cccc(/C=C\Br)c1)N2` (centres undefined), which Drug uptake is on record?
A: Its Drug uptake is 3.74.

Tested on: Putamen
Experiment: Drug uptake in anesthetized cynomolgus monkey brain putamen after 215 mins postinjection
Format: ADME, organism-based, Macaca fascicularis
Settings: in vivo

Q: With `O=C(OCC[18F])C1C2CCC(CC1c1cccc(/C=C\Br)c1)N2` (centres undefined) as the compound, how does the Drug uptake read?
A: The Drug uptake was 3.24.

Tested on: not listed separately
Experiment: Ratio of drug uptake in caudate to cerebellum in anesthetized cynomolgus monkey after 9.5 mins postinjection
Format: ADME, organism-based, Macaca fascicularis
Settings: in vivo

Q: For `O=C(OCC[18F])C1C2CCC(CC1c1cccc(/C=C\Br)c1)N2` (centres undefined), which Ratio is on record?
A: Its Ratio is 0.7.

Tested on: not listed separately
Experiment: Ratio of drug uptake in putamen to cerebellum in anesthetized cynomolgus monkey after 215 mins postinjection
Format: ADME, organism-based, Macaca fascicularis
Settings: in vivo

Q: Which Ratio does the source give for `O=C(OCC[18F])C1C2CCC(CC1c1cccc(/C=C\Br)c1)N2` (centres undefined) here?
A: The Ratio was 1.8.

Tested on: Midbrain
Experiment: Drug uptake in anesthetized cynomolgus monkey brain midbrain after 95 mins postinjection
Format: ADME, organism-based, Macaca fascicularis
Design: unit not given here
Settings: in vivo

Q: For `O=C(OCC[18F])C1C2CCC(CC1c1cccc(/C=C\Br)c1)N2` (centres undefined), which Drug uptake is on record?
A: Its Drug uptake is 4.91.

Tested on: Caudate
Experiment: Drug uptake in anesthetized cynomolgus monkey brain caudate after 35 mins postinjection
Format: ADME, organism-based, Macaca fascicularis, Caudate nucleus
Settings: in vivo

Q: Which Drug uptake does the source give for `O=C(OCC[18F])C1C2CCC(CC1c1cccc(/C=C\Br)c1)N2` (centres undefined) here?
A: The Drug uptake was 3.56.

Tested on: not listed separately
Experiment: Drug uptake in anesthetized cynomolgus monkey brain occipital lobe after 235 mins postinjection
Format: ADME, organism-based, Macaca fascicularis
Settings: in vivo

Q: Which Drug uptake does the source give for `O=C(OCC[18F])C1C2CCC(CC1c1cccc(/C=C\Br)c1)N2` (centres undefined) here?
A: The Drug uptake was 1.94.

Tested on: not listed separately
Experiment: Drug uptake in anesthetized cynomolgus monkey brain frontal lobe after 2.5 mins postinjection
Format: ADME, organism-based, Macaca fascicularis
Settings: in vivo

Q: For `O=C(OCC[18F])C1C2CCC(CC1c1cccc(/C=C\Br)c1)N2` (centres undefined), which Drug uptake is on record?
A: The Drug uptake was 0.22.

Tested on: not listed separately
Experiment: Ratio of drug uptake in midbrain to cerebellum in anesthetized cynomolgus monkey after 215 mins postinjection
Format: ADME, organism-based, Macaca fascicularis
Settings: in vivo

Q: For `O=C(OCC[18F])C1C2CCC(CC1c1cccc(/C=C\Br)c1)N2` (centres undefined), which Ratio is on record?
A: The Ratio was 2.1.

Tested on: not listed separately
Experiment: Drug uptake in anesthetized cynomolgus monkey brain frontal lobe after 115 mins postinjection
Format: ADME, organism-based, Macaca fascicularis
Settings: in vivo

Q: For `O=C(OCC[18F])C1C2CCC(CC1c1cccc(/C=C\Br)c1)N2` (centres undefined), which Drug uptake is on record?
A: Its Drug uptake is 2.69.

Tested on: Putamen
Experiment: Drug uptake in anesthetized cynomolgus monkey brain putamen after 2.5 mins postinjection
Format: ADME, organism-based, Macaca fascicularis
Settings: in vivo

Q: With `O=C(OCC[18F])C1C2CCC(CC1c1cccc(/C=C\Br)c1)N2` (centres undefined) as the compound, how does the Drug uptake read?
A: Its Drug uptake is 0.4.

Tested on: not listed separately
Experiment: Drug uptake in anesthetized cynomolgus monkey brain occipital lobe after 215 mins postinjection
Format: ADME, organism-based, Macaca fascicularis
Settings: in vivo

Q: With `O=C(OCC[18F])C1C2CCC(CC1c1cccc(/C=C\Br)c1)N2` (centres undefined) as the compound, how does the Drug uptake read?
A: The Drug uptake was 2.01.

Tested on: Pons
Experiment: Drug uptake in anesthetized cynomolgus monkey brain pons after 85 mins postinjection
Format: ADME, organism-based, Macaca fascicularis
Settings: in vivo

Q: For `O=C(OCC[18F])C1C2CCC(CC1c1cccc(/C=C\Br)c1)N2` (centres undefined), which Drug uptake is on record?
A: Its Drug uptake is 4.29.

Tested on: not listed separately
Experiment: Drug uptake in anesthetized cynomolgus monkey brain occipital lobe after 15.5 mins postinjection
Format: ADME, organism-based, Macaca fascicularis
Settings: in vivo

Q: Which Drug uptake does the source give for `O=C(OCC[18F])C1C2CCC(CC1c1cccc(/C=C\Br)c1)N2` (centres undefined) here?
A: Its Drug uptake is 2.99.

Tested on: Putamen
Experiment: Drug uptake in anesthetized cynomolgus monkey brain putamen after 85 mins postinjection
Format: ADME, organism-based, Macaca fascicularis
Design: unit not given here
Settings: in vivo

Q: With `O=C(OCC[18F])C1C2CCC(CC1c1cccc(/C=C\Br)c1)N2` (centres undefined) as the compound, how does the Drug uptake read?
A: Its Drug uptake is 4.94.

Tested on: not listed separately
Experiment: Drug uptake in anesthetized cynomolgus monkey brain cerebellum after 95 mins postinjection
Format: ADME, organism-based, Macaca fascicularis
Settings: in vivo

Q: With `O=C(OCC[18F])C1C2CCC(CC1c1cccc(/C=C\Br)c1)N2` (centres undefined) as the compound, how does the Drug uptake read?
A: Its Drug uptake is 3.05.

Tested on: not listed separately
Experiment: Drug uptake in anesthetized cynomolgus monkey brain occipital lobe after 105 mins postinjection
Format: ADME, organism-based, Macaca fascicularis
Settings: in vivo, 1.75 h

Q: For `O=C(OCC[18F])C1C2CCC(CC1c1cccc(/C=C\Br)c1)N2` (centres undefined), which Drug uptake is on record?
A: Its Drug uptake is 3.15.

Tested on: not listed separately
Experiment: Drug uptake in anesthetized cynomolgus monkey brain occipital lobe after 95 mins postinjection
Format: ADME, organism-based, Macaca fascicularis
Settings: in vivo

Q: Which Drug uptake does the source give for `O=C(OCC[18F])C1C2CCC(CC1c1cccc(/C=C\Br)c1)N2` (centres undefined) here?
A: The Drug uptake was 3.16.

Tested on: not listed separately
Experiment: Drug uptake in anesthetized cynomolgus monkey brain frontal lobe after 12.5 mins postinjection
Format: ADME, organism-based, Macaca fascicularis
Settings: in vivo

Q: Which Drug uptake does the source give for `O=C(OCC[18F])C1C2CCC(CC1c1cccc(/C=C\Br)c1)N2` (centres undefined) here?
A: The Drug uptake was 2.27.

Tested on: not listed separately
Experiment: Drug uptake in anesthetized cynomolgus monkey brain occipital lobe after 27.5 mins postinjection
Format: ADME, organism-based, Macaca fascicularis
Settings: in vivo

Q: For `O=C(OCC[18F])C1C2CCC(CC1c1cccc(/C=C\Br)c1)N2` (centres undefined), which Drug uptake is on record?
A: Its Drug uptake is 3.28.

Tested on: Putamen
Experiment: Drug uptake in anesthetized cynomolgus monkey brain putamen after 75 mins postinjection
Format: ADME, organism-based, Macaca fascicularis
Design: unit not given here
Settings: in vivo, 1.25 h

Q: With `O=C(OCC[18F])C1C2CCC(CC1c1cccc(/C=C\Br)c1)N2` (centres undefined) as the compound, how does the Drug uptake read?
A: The Drug uptake was 5.

Tested on: Caudate
Experiment: Drug uptake in anesthetized cynomolgus monkey brain caudate after 165 mins postinjection
Format: ADME, organism-based, Macaca fascicularis, Caudate nucleus
Settings: in vivo, 2.75 h

Q: For `O=C(OCC[18F])C1C2CCC(CC1c1cccc(/C=C\Br)c1)N2` (centres undefined), which Drug uptake is on record?
A: Its Drug uptake is 3.44.

Tested on: Thalamus
Experiment: Drug uptake in anesthetized cynomolgus monkey brain thalamus after 185 mins postinjection
Format: ADME, organism-based, Macaca fascicularis
Settings: in vivo

Q: Which Drug uptake does the source give for `O=C(OCC[18F])C1C2CCC(CC1c1cccc(/C=C\Br)c1)N2` (centres undefined) here?
A: The Drug uptake was 3.48.

Tested on: not listed separately
Experiment: Drug uptake in anesthetized cynomolgus monkey brain cerebellum after 27.5 mins postinjection
Format: ADME, organism-based, Macaca fascicularis
Settings: in vivo

Q: For `O=C(OCC[18F])C1C2CCC(CC1c1cccc(/C=C\Br)c1)N2` (centres undefined), which Drug uptake is on record?
A: The Drug uptake was 3.8.

Tested on: Putamen
Experiment: Drug uptake in anesthetized cynomolgus monkey brain putamen after 125 mins postinjection
Format: ADME, organism-based, Macaca fascicularis
Settings: in vivo

Q: With `O=C(OCC[18F])C1C2CCC(CC1c1cccc(/C=C\Br)c1)N2` (centres undefined) as the compound, how does the Drug uptake read?
A: Its Drug uptake is 4.59.

Tested on: not listed separately
Experiment: Ratio of drug uptake in caudate to cerebellum in anesthetized cynomolgus monkey after 18.5 mins postinjection
Format: ADME, organism-based, Macaca fascicularis
Settings: in vivo

Q: Which Ratio does the source give for `O=C(OCC[18F])C1C2CCC(CC1c1cccc(/C=C\Br)c1)N2` (centres undefined) here?
A: Its Ratio is 0.8.

Tested on: not listed separately
Experiment: Ratio of drug uptake in medulla to cerebellum in anesthetized cynomolgus monkey after 155 mins postinjection
Format: ADME, organism-based, Macaca fascicularis
Settings: in vivo

Q: With `O=C(OCC[18F])C1C2CCC(CC1c1cccc(/C=C\Br)c1)N2` (centres undefined) as the compound, how does the Ratio read?
A: The Ratio was 1.7.

Tested on: not listed separately
Experiment: Ratio of drug uptake in frontal lobe to cerebellum in anesthetized cynomolgus monkey after 3.5 mins postinjection
Format: ADME, organism-based, Macaca fascicularis
Settings: in vivo

Q: Which Ratio does the source give for `O=C(OCC[18F])C1C2CCC(CC1c1cccc(/C=C\Br)c1)N2` (centres undefined) here?
A: Its Ratio is 0.5.

Tested on: Medulla
Experiment: Drug uptake in anesthetized cynomolgus monkey brain medulla after 18.5 mins postinjection
Format: ADME, organism-based, Macaca fascicularis
Settings: in vivo

Q: For `O=C(OCC[18F])C1C2CCC(CC1c1cccc(/C=C\Br)c1)N2` (centres undefined), which Drug uptake is on record?
A: The Drug uptake was 4.39.

Tested on: Midbrain
Experiment: Drug uptake in anesthetized cynomolgus monkey brain midbrain after 185 mins postinjection
Format: ADME, organism-based, Macaca fascicularis
Settings: in vivo

Q: Which Drug uptake does the source give for `O=C(OCC[18F])C1C2CCC(CC1c1cccc(/C=C\Br)c1)N2` (centres undefined) here?
A: The Drug uptake was 4.14.

Tested on: Caudate
Experiment: Drug uptake in anesthetized cynomolgus monkey brain caudate after 2.5 mins postinjection
Format: ADME, organism-based, Macaca fascicularis, Caudate nucleus
Settings: in vivo

Q: Which Drug uptake does the source give for `O=C(OCC[18F])C1C2CCC(CC1c1cccc(/C=C\Br)c1)N2` (centres undefined) here?
A: Its Drug uptake is 0.36.
